Experimental data taken from ChEMBL document CHEMBL3046329, “Sensitivity to silthiofam, tebuconazole and difenoconazole of Gaeumannomyces graminis var. tritici isolates from China” (Pest Manag Sci, 2012).
Values after ≈ are worked out from the molar mass of the structure shown.

Key:
Assay type in all cases: functional, organism-based
[1] = tested on: Gaeumannomyces tritici; assay: Antifungal activity against sithiofam-resistant Gaeumannomyces graminis var. tritici isolate JS06 expressing C1 genetic cluster assessed as reduction in fungal colony diameter after 4 days; settings: isolate JS06, 96 h
[2] = tested on: Gaeumannomyces tritici; assay: Antifungal activity against sithiofam-resistant Gaeumannomyces graminis var. tritici isolate JS05 expressing C1 genetic cluster assessed as reduction in fungal colony diameter after 4 days; settings: isolate JS05, 96 h
[3] = tested on: Gaeumannomyces tritici; assay: Antifungal activity against sithiofam-resistant Gaeumannomyces graminis var. tritici isolate JS09 expressing C1 genetic cluster assessed as reduction in fungal colony diameter after 4 days; settings: isolate JS09, 96 h
[4] = tested on: Gaeumannomyces tritici; assay: Antifungal activity against sithiofam-sensitive Gaeumannomyces graminis var. tritici isolate HN21 expressing C2 genetic cluster assessed as reduction in fungal colony diameter after 4 days; settings: isolate HN21, 96 h
[5] = tested on: Gaeumannomyces tritici; assay: Antifungal activity against sithiofam-resistant Gaeumannomyces graminis var. tritici isolate HN20 expressing C1 genetic cluster assessed as reduction in fungal colony diameter after 4 days; settings: isolate HN20, 96 h
[6] = tested on: Gaeumannomyces tritici; assay: Antifungal activity against sithiofam-sensitive Gaeumannomyces graminis var. tritici isolate HN18 expressing C2 genetic cluster assessed as reduction in fungal colony diameter after 4 days; settings: isolate HN18, 96 h
[7] = tested on: Gaeumannomyces tritici; assay: Antifungal activity against sithiofam-sensitive Gaeumannomyces graminis var. tritici isolate HN28 expressing C2 genetic cluster assessed as reduction in fungal colony diameter after 4 days; settings: isolate HN28, 96 h
[8] = tested on: Gaeumannomyces tritici; assay: Antifungal activity against sithiofam-sensitive Gaeumannomyces graminis var. tritici isolate HN26 expressing C2 genetic cluster assessed as reduction in fungal colony diameter after 4 days; settings: isolate HN26, 96 h
[9] = tested on: Gaeumannomyces tritici; assay: Antifungal activity against sithiofam-sensitive Gaeumannomyces graminis var. tritici isolate HN23 expressing C2 genetic cluster assessed as reduction in fungal colony diameter after 4 days; settings: isolate HN23, 96 h
[10] = tested on: Gaeumannomyces tritici; assay: Antifungal activity against sithiofam-sensitive Gaeumannomyces graminis var. tritici isolate HN22 expressing C2 genetic cluster assessed as reduction in fungal colony diameter after 4 days; settings: isolate HN22, 96 h
[11] = tested on: Gaeumannomyces tritici; assay: Antifungal activity against sithiofam-sensitive Gaeumannomyces graminis var. tritici isolate HN14 expressing C2 genetic cluster assessed as reduction in fungal colony diameter after 4 days; settings: isolate HN14, 96 h
[12] = tested on: Gaeumannomyces tritici; assay: Antifungal activity against sithiofam-resistant Gaeumannomyces graminis var. tritici isolate HN13 expressing C1 genetic cluster assessed as reduction in fungal colony diameter after 4 days; settings: isolate HN13, 96 h
[13] = tested on: Gaeumannomyces tritici; assay: Antifungal activity against sithiofam-resistant Gaeumannomyces graminis var. tritici isolate HN10 expressing C1 genetic cluster assessed as reduction in fungal colony diameter after 4 days; settings: isolate HN10, 96 h
[14] = tested on: Gaeumannomyces tritici; assay: Antifungal activity against sithiofam-resistant Gaeumannomyces graminis var. tritici isolate HN09 expressing C1 genetic cluster assessed as reduction in fungal colony diameter after 4 days; settings: isolate HN09, 96 h
[15] = tested on: Gaeumannomyces tritici; assay: Antifungal activity against sithiofam-resistant Gaeumannomyces graminis var. tritici isolate HN08 expressing C1 genetic cluster assessed as reduction in fungal colony diameter after 4 days; settings: isolate HN08, 96 h
[16] = tested on: Gaeumannomyces tritici; assay: Antifungal activity against sithiofam-resistant Gaeumannomyces graminis var. tritici isolate HN07 expressing C1 genetic cluster assessed as reduction in fungal colony diameter after 4 days; settings: isolate HN07, 96 h
[17] = tested on: Gaeumannomyces tritici; assay: Antifungal activity against sithiofam-resistant Gaeumannomyces graminis var. tritici isolate HN06 expressing C1 genetic cluster assessed as reduction in fungal colony diameter after 4 days; settings: isolate HN06, 96 h
[18] = tested on: Gaeumannomyces tritici; assay: Antifungal activity against sithiofam-resistant Gaeumannomyces graminis var. tritici isolate HN04 expressing C1 genetic cluster assessed as reduction in fungal colony diameter after 4 days; settings: isolate HN04, 96 h
[19] = tested on: Gaeumannomyces tritici; assay: Antifungal activity against sithiofam-resistant Gaeumannomyces graminis var. tritici isolate HN01 expressing C1 genetic cluster assessed as reduction in fungal colony diameter after 4 days; settings: isolate HN01, 96 h
[20] = tested on: Gaeumannomyces tritici; assay: Antifungal activity against sithiofam-sensitive Gaeumannomyces graminis var. tritici isolate AH08 expressing C2 genetic cluster assessed as reduction in fungal colony diameter after 4 days; settings: isolate AH08, 96 h
[21] = tested on: Gaeumannomyces tritici; assay: Antifungal activity against sithiofam-sensitive Gaeumannomyces graminis var. tritici isolate HN17 expressing C2 genetic cluster assessed as reduction in fungal colony diameter after 4 days; settings: isolate HN17, 96 h
[22] = tested on: Gaeumannomyces tritici; assay: Antifungal activity against sithiofam-resistant Gaeumannomyces graminis var. tritici isolate HN16 expressing C1 genetic cluster assessed as reduction in fungal colony diameter after 4 days; settings: isolate HN16, 96 h
[23] = tested on: Gaeumannomyces tritici; assay: Antifungal activity against sithiofam-sensitive Gaeumannomyces graminis var. tritici isolate HN15 expressing C2 genetic cluster assessed as reduction in fungal colony diameter after 4 days; settings: isolate HN15, 96 h
[24] = tested on: Gaeumannomyces tritici; assay: Antifungal activity against sithiofam-sensitive Gaeumannomyces graminis var. tritici isolate JS01 expressing C1 genetic cluster assessed as reduction in fungal colony diameter after 4 days; settings: isolate JS01, 96 h
[25] = tested on: Gaeumannomyces tritici; assay: Antifungal activity against sithiofam-sensitive Gaeumannomyces graminis var. tritici isolate AH16 expressing C2 genetic cluster assessed as reduction in fungal colony diameter after 4 days; settings: isolate AH16, 96 h
[26] = tested on: Gaeumannomyces tritici; assay: Antifungal activity against sithiofam-sensitive Gaeumannomyces graminis var. tritici isolate AH07 expressing C2 genetic cluster assessed as reduction in fungal colony diameter after 4 days; settings: isolate AH07, 96 h
[27] = tested on: Gaeumannomyces tritici; assay: Antifungal activity against sithiofam-sensitive Gaeumannomyces graminis var. tritici isolate AH04 expressing C2 genetic cluster assessed as reduction in fungal colony diameter after 4 days; settings: isolate AH04, 96 h
[28] = tested on: Gaeumannomyces tritici; assay: Antifungal activity against sithiofam-resistant Gaeumannomyces graminis var. tritici isolate AH02 expressing C1 genetic cluster assessed as reduction in fungal colony diameter after 4 days; settings: isolate AH02, 96 h
[29] = tested on: Gaeumannomyces tritici; assay: Antifungal activity against sithiofam-sensitive Gaeumannomyces graminis var. tritici isolate AH01 expressing C2 genetic cluster assessed as reduction in fungal colony diameter after 4 days; settings: isolate AH01, 96 h
[30] = tested on: Gaeumannomyces tritici; assay: Antifungal activity against sithiofam-sensitive Gaeumannomyces graminis var. tritici isolate SD05 expressing C2 genetic cluster assessed as reduction in fungal colony diameter after 4 days; settings: isolate SD05, 96 h
[31] = tested on: Gaeumannomyces tritici; assay: Antifungal activity against sithiofam-sensitive Gaeumannomyces graminis var. tritici isolate SD04 expressing C2 genetic cluster assessed as reduction in fungal colony diameter after 4 days; settings: isolate SD04, 96 h
[32] = tested on: Gaeumannomyces tritici; assay: Antifungal activity against sithiofam-sensitive Gaeumannomyces graminis var. tritici isolate SD02 expressing C2 genetic cluster assessed as reduction in fungal colony diameter after 4 days; settings: isolate SD02, 96 h
[33] = tested on: Gaeumannomyces tritici; assay: Antifungal activity against sithiofam-resistant Gaeumannomyces graminis var. tritici isolate AH13 expressing C1 genetic cluster assessed as reduction in fungal colony diameter after 4 days; settings: isolate AH13, 96 h
[34] = tested on: Gaeumannomyces tritici; assay: Antifungal activity against sithiofam-sensitive Gaeumannomyces graminis var. tritici isolate AH12 expressing C2 genetic cluster assessed as reduction in fungal colony diameter after 4 days; settings: isolate AH12, 96 h
[35] = tested on: Gaeumannomyces tritici; assay: Antifungal activity against sithiofam-sensitive Gaeumannomyces graminis var. tritici isolate HN32 expressing C2 genetic cluster assessed as reduction in fungal colony diameter after 4 days; settings: isolate HN32, 96 h
[36] = tested on: Gaeumannomyces tritici; assay: Antifungal activity against sithiofam-sensitive Gaeumannomyces graminis var. tritici isolate HN31 expressing C3 genetic cluster assessed as reduction in fungal colony diameter after 4 days; settings: isolate HN31, 96 h
[37] = tested on: Gaeumannomyces tritici; assay: Antifungal activity against sithiofam-sensitive Gaeumannomyces graminis var. tritici isolate HN30 expressing C2 genetic cluster assessed as reduction in fungal colony diameter after 4 days; settings: isolate HN30, 96 h

CC1COC(Cn2cncn2)(c2ccc(Oc3ccc(Cl)cc3)cc2Cl)O1 (configuration not stated) [DIFENOCONAZOLE]
EC50 [1]: 0.223 µg/mL (≈ 0.548 µM) | EC50 [2]: 0.213 µg/mL (≈ 0.525 µM) | EC50 [3]: 0.13 µg/mL (≈ 0.32 µM) | EC50 [4]: 0.254 µg/mL (≈ 0.625 µM) | EC50 [5]: 0.569 µg/mL (≈ 1.4 µM) | EC50 [6]: 0.313 µg/mL (≈ 0.769 µM) | EC50 [7]: 0.0604 µg/mL (≈ 0.149 µM) | EC50 [8]: 0.366 µg/mL (≈ 0.902 µM) | EC50 [9]: 0.331 µg/mL (≈ 0.816 µM) | EC50 [10]: 0.0553 µg/mL (≈ 0.136 µM) | EC50 [11]: 0.0988 µg/mL (≈ 0.243 µM) | EC50 [12]: 0.223 µg/mL (≈ 0.548 µM) | EC50 [13]: 0.375 µg/mL (≈ 0.923 µM) | EC50 [14]: 0.159 µg/mL (≈ 0.392 µM) | EC50 [15]: 0.216 µg/mL (≈ 0.533 µM) | EC50 [16]: 0.481 µg/mL (≈ 1.18 µM) | EC50 [17]: 0.479 µg/mL (≈ 1.18 µM) | EC50 [18]: 0.255 µg/mL (≈ 0.626 µM) | EC50 [19]: 0.389 µg/mL (≈ 0.958 µM) | EC50 [20]: 0.019 µg/mL (≈ 0.0468 µM) | EC50 [21]: 0.175 µg/mL (≈ 0.432 µM) | EC50 [22]: 1.01 µg/mL (≈ 2.49 µM) | EC50 [23]: 0.0884 µg/mL (≈ 0.218 µM) | EC50 [24]: 0.142 µg/mL (≈ 0.349 µM) | EC50 [25]: 0.126 µg/mL (≈ 0.309 µM) | EC50 [26]: 0.539 µg/mL (≈ 1.33 µM) | EC50 [27]: 0.668 µg/mL (≈ 1.64 µM) | EC50 [28]: 0.273 µg/mL (≈ 0.672 µM) | EC50 [29]: 0.17 µg/mL (≈ 0.419 µM) | EC50 [30]: 0.694 µg/mL (≈ 1.71 µM) | EC50 [31]: 0.0923 µg/mL (≈ 0.227 µM) | EC50 [32]: 0.335 µg/mL (≈ 0.825 µM) | EC50 [33]: 0.288 µg/mL (≈ 0.708 µM) | EC50 [34]: 0.154 µg/mL (≈ 0.38 µM) | EC50 [35]: 0.359 µg/mL (≈ 0.885 µM) | EC50 [36]: 0.283 µg/mL (≈ 0.697 µM) | EC50 [37]: 0.102 µg/mL (≈ 0.251 µM)
